# Experiments:
# [1] = Other systemic effects and post mortem examination; type: in vivo, rat; details: for systemic changes (palsies, coat, dyspnoea, death, post mortem lesions): 3 weeks feeding
# Description: (§1) Rat model system: The rat achilles tendon model is used to test model compounds for biological activity i.e. the ability to promote or inhibit wound healing in vivo. As described in Example 1 below, one Achilles tendon in each rat is transsected surgically, and allowed to heal for periods ranging from 6 hours to 14 days. At each time point, the degree of healing is first assessed by measuring walking speed. The animals are then sacrificed and the tendons are excised and subjected to biomechanical testing and morphological and immunochemical analysis. NOS activity is measured in the excised tendons as above. Finally, body and muscle weight are monitored, and systemic and local toxicity are assessed by macroscopic and microscopic post-mortem examination. It will be understood by a skilled practitioner that any small mammal suitable for testing may be used, including rats, mice, rabbits, guinea pigs, and the like.
# (§2) In the following NOS inhibition experiments, animals were fed the indicated chemicals at 1 mg/ml in their drinking water ad libitum for four days prior to surgical division of the right Achilles tendon and throughout the post-operative experimental period, with the exception of experiment (c)*, where the drugs were given from the immediate post-operative period:
# (§3) (d) 3 weeks D-NAME (n=8), L-NAME (n=8), L-arginine (n=8), walking speed assessments at days 1,4,8,11,15,18,22, biomechanical assessment, muscle weight and autopsy at day 22.
# [2] = Body and muscle weight of rats fed the chemicals; type: in vivo, rat; details: for increase of weight: over 22 days, same dose
# Description: as §2, §3
# All animals were weighed prior to surgery, at weekly intervals, and at sacrifice. After sacrifice the right triceps of rats fed D-NAME (n=8), L-NAME (n=8) or L-arginine (n=8) for three weeks was harvested, weighed for wet weight, lyophilized for dry weight and the water content calculated.
# [3] = test system: cultured bovine chondrocytes; test: NO2- release from cultured bovine chondrocytes (Greiss reaction); type: cell-based; details: for release of NO2-: endotoxin at 1 μg/ml, no constitutive release
# [4] = test system: surgically divided Achilles tendon; test: Rat Achilles tendon healing model with nitric oxide synthase inhibition (morphology, biomechanics); type: in vivo; details: for distance separating the cut ends of the healing tendon (5-8 mm): 1 mg/ml in drinking water
# Description: as §1, §2
# (a) 1 week D-NAME (n=9) vs L-NAME (n=11); walking speed and biomechanical analyses at day 7. […]
# The rats were housed in beta-chip-lined plastic cages, two animals per cage, with a 12-hour light, 12 hour dark cycle in an animal care facility and fed rat chow and water ad libitum. Anaesthesia was achieved by intraperitoneal injection of 80 mg/kg ketamine (Park Davis, Morris Plains, N.J.) and 5 mg/kg xylazine (Miles Inc, Shawnee Mission, Kans.). All surgical procedures were performed under sterile conditions with the aid of 2.5x microsurgical loops. The surgical procedure was similar to that previously outlined. A 3 cm midline incision was made over the right Achilles tendon and the Achilles tendon and plantaris were isolated from the surrounding fascia. The underlying fascia was disrupted by spreading with a pair of small straight scissors. The tendinous portion of the plantaris was removed and the Achilles tendon was divided cleanly in its mid-substance, 0.5 cm from its calcaneal insertion with a scalpel. The skin was then sutured with two simple nylon sutures of 5-0 ethilon monofilament nylon on a PC-1 cutting needle (Ethicon Inc, N.J.). No operation was performed on the left, uninjured, hind limb. No cast or dressings were applied and the animals were unrestricted during the healing phase. The animals were sacrificed by CO2 inhalation.
# One hundred and fifty two harvested lower limbs were placed in phosphate buffered saline (PBS), frozen and stored at −70° C. for an average of seven days prior to testing. On the day prior to testing the specimens were thawed. All extraneous soft and hard tissues were removed by blunt and sharp dissection from the Achilles tendon, formerly intramuscular tendinous fibers and the hind foot. Area measurements of the uninjured and sham operated tendons were made with an area micrometer (Mitutoyo, Tokyo, Japan). Length measurements were made with a 0.02 mm calibrated caliper (Draper, Japan). The formerly intramuscular tendinous fibers were then secured between two strips of white labelling tape with Thick Gel Super Glue® (Super Glue Corporation, N.Y.) such that the distal edge of the tape was 1.0 cm from the calcaneal insertion. The calcaneus was fixed at 45° in an adjustable rubber-gripped clamp (Panavise, Sparks, Nev.). Throughout the procedure care was taken to ensure that neither the Super Glue® nor the self curing plastic contaminated the tendon proper and the specimens were kept moist by application of PBS. Mechanical testing was carried out using a MTS 810 material test system (MTS Systems Corporation, PN). Each specimen underwent a constant velocity ramp to failure test at 1 cm/sec (≈100%/sec). […]
# [5] = Walking speed assessment in a confined walkway; type: in vivo, rat
# Description: as §2
# The animals were tested in a confined walkway with a dark shelter at the end. Each rat was held by its chest at the start of the walkway and then allowed to walk/run to the dark shelter at the end of the walkway. The time taken for the rat to cover the first half (21.5 cm) and the total length (43 cm) of the walkway was measured by individuals blinded to the treatment groups.
# [6] = fed from the immediate post-operative period, day 15
compound,measurement,setting,value
"COC(=O)[C@H](N)CCCN=C(N)N[N+](=O)[O-] [D-NAME, Nw-nitro-D-arginine methyl ester]","systemic changes (palsies, coat, dyspnoea, death, post mortem lesions)",[1],failed to display any of the above changes
same,increase of weight,[2],30%
O=C(O)CN(CCOCCOCCN(CC(=O)O)CC(=O)O)CC(=O)O [EGTA],inhibition of endotoxin-induced NO2- production,[3],not inhibited
"COC(=O)[C@@H](N)CCCNC(=N)N[N+](=O)[O-] [L-NAME, Nw-nitro-L-arginine methyl ester]",distance separating the cut ends of the healing tendon (5-8 mm),[4],did not change
same,microscopic appearance of the healing tissue (light microscopy),[4]; L-NAME versus D-NAME fed rats,no subjective differences
same,failure load of uninjured Achilles tendon constructs,[4]; day 7,unaffected
same,inhibition of cross-sectional area of healing Achilles tendon,"[4]; day 7, given orally 1 mg/ml in drinking water from four days prior to surgery, p<0.01 vs D-NAME",30%
same,reduction in failure load on the formerly divided side,"[4]; day 7, p<0.01",24%
same,inhibition of cross-sectional area of healing Achilles tendon,"[4]; day 15, given orally from four days prior to surgery, p<0.001",50%
same,inhibition of cross-sectional area of healing Achilles tendon,"[4]; day 22, given orally from four days prior to surgery, p<0.05",17%
same,failure load,[4]; [6],failed to show any changes
same,tendon cross-sectional area,[4]; [6],failed to show any changes
same,"toe displacement, maximum displacement, stiffness, energy, modulus or maximum stress of surgically divided or uninjured Achilles constructs","[4]; rat, in vivo",did not affect
same,rats that died,"[1]; day 21, group of eight rats",Two
same,post mortem examination findings,"[1]; day 22, all rats","scant body fat, empty small intestines, myocardial lesions consistent with infarction and granular kidneys"
same,rats that developed severe dyspnoea,[1]; from day 15,⅝
same,coat and peri-orbital changes,"[1]; from day 15, all rats",lost coat texture and developed peri-orbital rubor
same,rats that developed motor palsies of upper or lower limbs,"[1]; from day 15, group of eight rats",Four out of the eight
same,inhibition of endotoxin-induced NO2- production,[3],completely inhibited
same,body weight over the first 15 days of treatment,[2]; 1 mg/ml in drinking water,either failed to gain weight or lost weight
same,lighter than initial preoperative weight,"[2]; by day 22, p<0.001",30%
same,loss in dry muscle weight (right triceps),"[2]; day 22, p<0.01",40%
same,loss in wet muscle weight (right triceps),"[2]; day 22, p<0.01",30%
same,systemic change: weight,[2]; [6],weight loss
same,behavior and walking speed,[5]; after day 11,"progressively quieter, slower"
same,systemic change: walking speed,[5]; [6],loss of walking speed
same,behavior or walking speed,[5]; first week of treatment,no changes
N=C(N)NCCC[C@H](N)C(=O)O [L-arginine],distance separating the cut ends of the healing tendon (5-8 mm),[4],did not change
same,"systemic changes (palsies, coat, dyspnoea, death, post mortem lesions)",[1],failed to display any of the above changes
same,effect on muscle weight,[2]; day 22,no effect
same,increase of weight,[2],30%
IL-1β: inflammatory mediator,release of NO2-,[3],100 nmol NO2^−/106 cells/24 hours
TNF-α,release of NO2-,[3],100 nmol NO2^−/106 cells/24 hours

# Source: patent publication US6747062B2, “Regulation of wound healing by nitric oxide” (New York Society for the Ruptured and Crippled Maintaining …, priority 1994, dated 2004)
